Test results published in US9023864B2, “Indole derivatives as CRTH2 receptor antagonists” (Merck Sharp & Dohme Corp., priority 2009, dated 2015).

target: T1, hCRTH2 (Homo sapiens, UniProt Q9Y5Y4); experiment: Radioligand binding assay ([3H]PGD2 competition, membranes from HEK-hCRTH2 cell line); details: 0.7 nM [3H]PGD2, membrane protein from HEK-hCRTH2 cell line, 60 min at room temperature; values given as ranges
T1 construct: expressed in transfected cells; host or cells: HEK cell line expressing hCRTH2 (HEK-hCRTH2); membranes
T1 sequence (Q9Y5Y4 1-395): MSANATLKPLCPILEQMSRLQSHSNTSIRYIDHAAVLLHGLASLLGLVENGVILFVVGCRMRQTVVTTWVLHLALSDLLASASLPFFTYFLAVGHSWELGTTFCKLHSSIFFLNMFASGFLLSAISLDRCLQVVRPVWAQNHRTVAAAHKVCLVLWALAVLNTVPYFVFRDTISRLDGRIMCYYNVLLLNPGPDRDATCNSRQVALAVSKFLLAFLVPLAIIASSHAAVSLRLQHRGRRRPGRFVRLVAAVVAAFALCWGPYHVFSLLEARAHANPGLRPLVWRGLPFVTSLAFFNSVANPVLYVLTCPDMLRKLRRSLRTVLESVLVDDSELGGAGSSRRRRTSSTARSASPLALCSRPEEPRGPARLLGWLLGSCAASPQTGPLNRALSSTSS
Protocol: Radioligand Binding Assay.
Radioligand binding assays were performed at room temperature in 10 mM HEPES/KOH pH 7.4, 1 mM EDTA containing 10 mM MnCl2 and 0.7 nM [^3H]PGD2 (NEN, 171 Ci mmol^−1), in a final volume of 0.2 ml. Competing ligands were diluted in dimethylsulfoxide (Me2SO) that was kept constant at 1% (v/v) of the final incubation volume. The reaction was initiated by the addition of 8-20 μg of membrane protein prepared from a HEK-hCRTH2 cell line. Total and non-specific binding were determined in the absence and the presence of 10 μM PGD2, respectively. Under these conditions, specific binding (total minus non-specific) of the radioligand to the receptor reached equilibrium within 50 min and was stable up to 180 min. The reaction was routinely conducted for 60 min at room temperature and terminated by rapid filtration through prewetted Unifilters GF/C (Packard), using a Tomtec MachIII semi-automated harvester (for HEK-hCRTH2). The filters were then washed with 4 ml of the same buffer and residual radioligand bound to the filter was determined by liquid scintillation counting following equilibration in 25 μl Ultima Gold F™ (Unifilter) (Packard). The Ki (in nM) values for representative compounds of the present invention are as follows: ≦5: Examples 3.1, 5.1, 6.1, 7.1, 8.1/8A, 9.1, 26, 27.1, 28.1, 29.1, 30, 31.1, 31.3, 32.1, 32.4, 33.1, 34.1, 36.1, 38.1, 39, 40, 41; >5 and ≦10: Examples, 4, 5.3, 29.2; >10 and ≦50: Examples 1, 10, 14, 21, 22, 25, 31.4, 32.3, 35, 36.2, 37; >50 and ≦100: Examples 2, 5.4, 6.2, 27.2, 28.2; >100: Examples 3.2, 5.2, 7.2, 8.2, 9.2, 11, 12, 13, 15, 16, 17, 18, 19, 20, 23, 24, 31.2, 32.2, 33.2, 34.2, 38.2.

Ki	Structure (SMILES)
> 0.1 µM	O=C(O)Cc1c2n(c3c(F)cccc13)CC(n1nncc1Cc1ccc(F)c(F)c1)CC2 (single isomer, unassigned) [Example 33.2, {7-[5-(3,4-difluorobenzyl)-1H-1,2,3-triazol-1-yl]-4-fluoro-6,7,8,9-tetrahydropyrido[1,2-a]-indol-10-yl}acetic acid]
≤ 0.005 µM	O=C(O)Cc1c2n(c3c(F)cccc13)CC(n1nncc1Cc1ccc(Cl)cc1)CC2 (single isomer, unassigned) [Example 34.1, {7-[5-(4-chlorobenzyl)-1H-1,2,3-triazol-1-yl]-4-fluoro-6,7,8,9-tetrahydropyrido[1,2-a]indol-10-yl}acetic acid]
> 0.1 µM	O=C(O)Cc1c2n(c3c(F)cccc13)CC(n1nncc1Cc1ccc(Cl)cc1)CC2 (single isomer, unassigned) [Example 34.2, {7-[5-(4-chlorobenzyl)-1H-1,2,3-triazol-1-yl]-4-fluoro-6,7,8,9-tetrahydropyrido[1,2-a]indol-10-yl}acetic acid]
≤ 0.005 µM	Cc1nnn(C2CCc3c(CC(=O)O)c4cccc(F)c4n3C2)c1Cc1ccc(F)cc1 (single isomer, unassigned) [Example 36.1, {4-Fluoro-7-[5-(4-fluorobenzyl)-4-methyl-1H-1,2,3-triazol-1-yl]-6,7,8,9-tetrahydropyrido[1,2-a]indol-10-yl}acetic acid]
0.01 to 0.05 µM	Cc1nnn(C2CCc3c(CC(=O)O)c4cccc(F)c4n3C2)c1Cc1ccc(F)cc1 (single isomer, unassigned) [Example 36.2, {4-Fluoro-7-[5-(4-fluorobenzyl)-4-methyl-1H-1,2,3-triazol-1-yl]-6,7,8,9-tetrahydropyrido[1,2-a]indol-10-yl}acetic acid]
≤ 0.005 µM	CC1C(n2nncc2Cc2ccc(F)cc2)CCc2c(CC(=O)O)c3cccc(F)c3n21 (single isomer, unassigned) [Example 38.1, {4-Fluoro-7-[5-(4-fluorobenzyl)-1H-1,2,3-triazol-1-yl]-6-methyl-6,7,8,9-tetrahydropyrido[1,2-α]indol-10-yl}acetic acid]
> 0.1 µM	CC1C(n2nncc2Cc2ccc(F)cc2)CCc2c(CC(=O)O)c3cccc(F)c3n21 (single isomer, unassigned) [Example 38.2, {4-Fluoro-7-[5-(4-fluorobenzyl)-1H-1,2,3-triazol-1-yl]-6-methyl-6,7,8,9-tetrahydropyrido[1,2-α]indol-10-yl}acetic acid]

Continued, compound first:

Structure (SMILES)	Ki
CC(C)(c1ccc(F)cc1)c1cnnn1C1CCc2c(CC(=O)O)c3cccc(F)c3n2C1 (single isomer, unassigned) [Example 39, (4-Fluoro-7-{5-[1-(4-fluorophenyl)-1-methylethyl]-1H-1,2,3-triazol-1-yl}-6,7,8,9-tetrahydropyrido[1,2-a]indol-10-yl)acetic acid]	≤ 0.005 µM
O=C(O)Cc1c2n(c3ccccc13)CC(n1nncc1Cc1ccc(F)cc1F)CC2 (single isomer, unassigned) [Example 40, {7-[5-(2,4-difluorobenzyl)-1H-1,2,3-triazol-1-yl]-6,7,8,9-tetrahydropyrido[1,2-a]-indol-10-yl}acetic acid]	≤ 0.005 µM
O=C(O)Cc1c2n(c3c(F)cccc13)CC(n1nncc1Cc1ccc(F)cc1F)CC2 (single isomer, unassigned) [Example 41, {7-[5-(2,4-difluorobenzyl)-1H-1,2,3-triazol-1-yl]-4-fluoro-6,7,8,9-tetrahydro-pyrido[1,2-a]indol-10-yl}acetic acid]	≤ 0.005 µM
O=C(O)Cc1c2n(c3ccccc13)CC(n1cc(Cc3ccccc3)nn1)CC2 (stereo not drawn) [Example 1, [7-(4-Benzyl-[1,2,3]triazol-1-yl)-6,7,8,9-tetrahydropyrido[1,2-α]indol-10-yl]-acetic acid]	0.01 to 0.05 µM
COc1ccc(-c2cn(C3CCc4c(CC(=O)O)c5ccccc5n4C3)nn2)cc1 (stereo not drawn) [Example 2, {7-[4-(4-Methoxy-phenyl)-[1,2,3]triazol-1-yl]-6,7,8,9-tetrahydropyrido[1,2-α]indol-10-yl}-acetic acid]	0.05 to 0.1 µM
